This is an account of results in US5948755A, “Cyclosporin compound, its preparation and the pharmaceutical compositions which contain it” (Rhone-Poulenc Rorer S.A., priority 1996, dated 1999).

One series concerns retrovirus (HIV). As to conditions: read-out: average for the active concentrations (IC50); technique of Pauwells et al.; first of the two values printed.
For series [1] the following is noted: at concentrations displaying anti-retrovirus activity.
The conditions of series [2]: EP 484281 and Eur. J. Immunol., 17, 1359 (1987); cited from earlier work.

Take `C/C=C/C[C@@H](C)[C@@H](O)[C@H]1C(=O)N[C@@H](CC)C(=O)N(C)[C@H](SC)C(=O)N(C)[C@@H](CC(C)(C)O)C(=O)N[C@@H](C(C)C)C(=O)N(C)[C@@H](CC(C)C)C(=O)N[C@@H](C)C(=O)N[C@H](C)C(=O)N(C)[C@@H](CC(C)C)C(=O)N(C)[C@@H](CC(C)C)C(=O)N(C)[C@@H](C(C)C)C(=O)N1C` [formula (I), [(R)-Methylthio-Sar]^3-[4'-hydroxy-MeLeu]^4-cyclosporin A]: in the series on retrovirus (HIV), the IC50 was found to be 70 nM. Also, the “cytotoxic or cytostatic effect” value in series [1] was “devoid of any cytotoxic or cytostatic effect”.

Consider [4'-hydroxy-MeLeul]^4 -cyclosporin, for which the immunosuppressing nature result in series [2] is on record as “are not immunosuppressants”.
